Calls of active or inactive are those of the source. No cut-off for these calls is given here.
What was measured:
[1] = target: 72 kDa type IV collagenase (Homo sapiens, UniProt P08253); test: Inhibition of recombinant human MMP2 (110 to 452 residues) using Mca-Pro-Leu-Gly-Leu-Dpa-Ala-Arg-NH2 expressed in yeast expression system as substrate incubated for 15 mins followed by substrate addition and measured after 2 to 4 hrs by fluorescence based assay
Neutrophil collagenase = Neutrophil collagenase (Homo sapiens, UniProt P22894); test: Inhibition of recombinant human MMP8 (99 to 269 residues) using Mca-Pro-Leu-Gly-Leu-Dpa-Ala-Arg-NH2 expressed in Escherichia coli expression system as substrate incubated for 15 mins followed by substrate addition and measured after 2 to 4 hrs by fluorescence based assay
Collagenase 3 = Collagenase 3 (Homo sapiens, UniProt P45452); test: Inhibition of recombinant human MMP13 (104 to 274 residues) using Mca-Pro-Leu-Gly-Leu-Dpa-Ala-Arg-NH2 expressed in Escherichia coli expression system as substrate incubated for 15 mins followed by substrate addition and measured after 2 to 4 hrs by fluorescence based assay
[2] = Cytotoxicity against mouse SN-56 cells assessed as reduction in cell viability upto 100 uM incubated for 24 hrs by MTT assay; type: cell-based; settings: sn-56, 24 h
[3] = target: Matrix metalloproteinase-9 (Homo sapiens, UniProt P14780); test: Inhibition of recombinant human MMP9 (107 to 449 residues) using Mca-Pro-Leu-Gly-Leu-Dpa-Ala-Arg-NH2 expressed in Escherichia coli expression system as substrate incubated for 15 mins followed by substrate addition and measured after 2 to 4 hrs by fluorescence based assay
[4] = Neuroprotective activity against H2O2-induced lipid peroxidation in mouse SN-56 cells assessed as increase in MDA level at 1 to 150 uM incubated for 24 hrs by lipid peroxidation MDA assay kit method relative to control; type: functional; settings: dose 1-150 µM
SN-56 [5] = test: Neuroprotective activity against H2O2-induced lipid peroxidation in mouse SN-56 cells assessed as increase in MDA level incubated for 24 hrs by lipid peroxidation MDA assay kit method; type: functional, cell-based
SN-56 [6] = test: Neuroprotective activity against H2O2-induced cytotoxicity in mouse SN-56 cells assessed as increase in cell viability at 10 to 100 uM incubated for 24 hrs by MTT assay; type: functional, cell-based; settings: dose 10-100 µM

Chain of Matrix metalloproteinase-9 (P14780 whole entry, the tested form may be a part): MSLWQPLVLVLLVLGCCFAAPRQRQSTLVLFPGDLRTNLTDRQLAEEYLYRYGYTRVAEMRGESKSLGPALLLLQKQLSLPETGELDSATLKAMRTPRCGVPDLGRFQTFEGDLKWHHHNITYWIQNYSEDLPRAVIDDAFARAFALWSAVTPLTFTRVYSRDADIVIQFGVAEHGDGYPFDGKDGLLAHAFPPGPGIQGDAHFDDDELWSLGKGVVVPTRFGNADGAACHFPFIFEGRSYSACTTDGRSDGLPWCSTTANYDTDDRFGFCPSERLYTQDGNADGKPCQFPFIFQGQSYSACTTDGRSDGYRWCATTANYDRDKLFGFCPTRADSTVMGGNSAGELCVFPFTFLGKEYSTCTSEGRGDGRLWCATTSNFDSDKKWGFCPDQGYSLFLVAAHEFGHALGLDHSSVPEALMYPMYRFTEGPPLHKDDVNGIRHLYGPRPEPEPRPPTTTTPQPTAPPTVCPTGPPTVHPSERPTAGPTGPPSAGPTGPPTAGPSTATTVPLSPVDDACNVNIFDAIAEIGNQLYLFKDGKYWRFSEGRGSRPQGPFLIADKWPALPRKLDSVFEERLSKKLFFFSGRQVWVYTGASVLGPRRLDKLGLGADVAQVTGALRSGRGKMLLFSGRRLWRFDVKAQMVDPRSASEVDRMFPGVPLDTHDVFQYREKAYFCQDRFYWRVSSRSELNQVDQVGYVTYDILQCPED
Chain of 72 kDa type IV collagenase (P08253 whole entry, the tested form may be a part): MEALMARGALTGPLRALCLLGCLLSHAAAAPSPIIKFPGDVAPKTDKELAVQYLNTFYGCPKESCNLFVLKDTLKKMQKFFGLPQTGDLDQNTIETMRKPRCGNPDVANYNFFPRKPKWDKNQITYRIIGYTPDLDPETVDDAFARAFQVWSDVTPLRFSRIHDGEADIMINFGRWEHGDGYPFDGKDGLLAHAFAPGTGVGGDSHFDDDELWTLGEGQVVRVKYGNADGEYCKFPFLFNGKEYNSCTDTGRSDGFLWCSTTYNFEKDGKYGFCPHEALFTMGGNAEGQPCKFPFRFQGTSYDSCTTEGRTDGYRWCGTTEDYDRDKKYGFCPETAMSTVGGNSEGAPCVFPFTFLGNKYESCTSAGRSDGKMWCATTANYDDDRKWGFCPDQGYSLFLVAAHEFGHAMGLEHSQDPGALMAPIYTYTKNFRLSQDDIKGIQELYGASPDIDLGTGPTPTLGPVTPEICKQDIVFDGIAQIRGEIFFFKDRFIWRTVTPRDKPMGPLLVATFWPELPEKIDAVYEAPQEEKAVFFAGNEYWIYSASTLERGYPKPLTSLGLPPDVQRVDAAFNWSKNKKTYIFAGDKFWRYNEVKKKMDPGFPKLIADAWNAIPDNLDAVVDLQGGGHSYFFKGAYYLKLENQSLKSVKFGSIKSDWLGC
Chain of Neutrophil collagenase (P22894 whole entry, the tested form may be a part): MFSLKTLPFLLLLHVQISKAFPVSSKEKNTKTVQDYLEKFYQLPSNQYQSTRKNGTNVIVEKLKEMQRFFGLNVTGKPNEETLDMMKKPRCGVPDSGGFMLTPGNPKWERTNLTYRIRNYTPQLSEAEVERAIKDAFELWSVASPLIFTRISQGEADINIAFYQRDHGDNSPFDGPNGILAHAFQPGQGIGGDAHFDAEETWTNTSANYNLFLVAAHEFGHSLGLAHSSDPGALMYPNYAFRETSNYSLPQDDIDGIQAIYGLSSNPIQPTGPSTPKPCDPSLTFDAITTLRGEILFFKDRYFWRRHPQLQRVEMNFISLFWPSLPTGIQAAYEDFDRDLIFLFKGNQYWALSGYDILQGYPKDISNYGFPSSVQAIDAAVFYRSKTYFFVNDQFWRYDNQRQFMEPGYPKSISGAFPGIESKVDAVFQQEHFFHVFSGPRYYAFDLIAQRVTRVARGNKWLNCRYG

| Compound | IC50 [1] | IC50 (Neutrophil collagenase) | IC50 (Collagenase 3) | Activity [2] | IC50 [3] | Activity [4] | Activity (SN-56 [5]) | Activity (SN-56 [6]) |
| --- | --- | --- | --- | --- | --- | --- | --- | --- |
| COc1ccc(Nc2cc(-c3ccccc3)cc3c2c(=O)[nH]c2c(OC)c(OC)ccc23)cc1 | 42 µM | 68 µM | 37 µM | Non-Toxic | 20.5 µM | – | – | – |
| O=c1[nH]c2ccccc2c2cc(-c3cccs3)cc(Nc3ccccc3)c12 | 6.1 µM | 18 µM | 15.6 µM | Non-Toxic | 16.1 µM | 100% | Dose-dependent effect | Active |
| O=c1[nH]c2ccccc2c2cc(-c3cccs3)cc(Nc3ccc(F)cc3)c12 | 6.8 µM | 26.5 µM | 15.8 µM | Non-Toxic | 20.1 µM | 100% | Dose-dependent effect | Active |
| COc1ccc(-c2cc(Nc3ccccc3)c3c(=O)[nH]c4ccccc4c3c2)cc1 | 47 µM | 54 µM | 40 µM | Non-Toxic | 32 µM | – | Dose-dependent effect | – |
| CN(C)c1ccc(Nc2cc(-c3ccccc3)cc3c2c(=O)[nH]c2ccccc23)cc1 | 73 µM | 84 µM | 40 µM | Non-Toxic | 88 µM | – | – | – |
| Cc1ccc(-c2cc(Nc3ccccc3)c3c(=O)[nH]c4ccccc4c3c2)cc1 | 84.5 µM | 62 µM | 41 µM | Non-Toxic | 37.5 µM | – | – | – |
| O=c1[nH]c2ccccc2c2cc(-c3ccco3)cc(Nc3ccc(F)cc3)c12 | 45.4 µM | > 100 µM | > 100 µM | Non-Toxic | > 100 µM | – | – | – |
| O=c1[nH]c2ccccc2c2cc(-c3ccccc3)cc(Nc3ccccc3)c12 | 13 µM | 69 µM | 42 µM | Non-Toxic | 54 µM | – | – | – |
| O=c1[nH]c2ccccc2c2cc(-c3ccco3)cc(Nc3ccccc3)c12 | 25.4 µM | > 100 µM | 41.7 µM | Non-Toxic | > 100 µM | – | Dose-dependent effect | – |
| COc1ccc(Nc2cc(-c3ccccc3)cc3c2c(=O)[nH]c2ccccc23)cc1 | 60 µM | > 100 µM | 16.4 µM | Non-Toxic | 22 µM | 100% | Dose-dependent effect | Active |
